Patent US10160766B1, “Benzopyranyl tetracycle compound and pharmaceutical composition having excellent anti-inflammatory effect comprising the same” (Spark Biopharma, Inc., priority 2017, dated 2018)
Values after ≈ are worked out from the molar mass of the structure shown. “Also recorded” adds a separate entry of the source.

Tests used:
[1] = tested on: NO release in Raw264.7 cells; assay: Griess assay, inhibition of nitric oxide release; format: cell-based; conditions: 100 ng/mL LPS and compounds 24 hours, compared with control group
Description: Thus, the Griess assay was used to measure nitric oxide secretion for inflammation inhibition in Raw264.7 cells.
Raw 264.7 macrophage cell was cultured in Dulbecco Modified Eagle Medium (DMEM) with 10% (v/v) fetal bovine serum (FBS) and 1% (v/v) antibiotic-anti mycotic solution.
Cell was maintained in a 100 mm cell culture dish under cell culture conditions (5% CO2 incubator at 37° C. with humidified atmosphere).
Griess assay reagent was generated prior to the assay with the following contents listed below: N-(1-naphthyl) ethylenediamine dihydrochloride, 0.1% (m/v); sulfanilamide, 1% (m/v); phosphoric acid (85%); 5% (v/v) in deionized water.
Raw 264.7 cell was seeded in transparent 96-well plate and maintained for 1 day. Media was aspirated, and each well was washed with serum free DMEM for twice. Each well was refilled with serum-free DMEM.
Then 100 ng/mL LPS and compounds were treated afterward and cultured for 24 hours. After the incubation, the supernatant culture media was transferred to new 96-well plate and mixed with 50 μL of Griess assay reagent.
Media-reagent mixture was incubated at room temperature for several minutes. Absorbance was read at 548 nm. Four wells each were used for the control experiment, LPS and DMSO (without any compounds) treated well, and DMSO-only treated well. Blank values were measured.
Blank values were measured by mixing 50 μL of Griess assay reagent with […] and 1% antibiotic-antimycotic containing DMEM.
As for the compounds in which the double bond of the tetrahydropyridazine ring in Compound 1d is moved or eliminated, the inhibition rate of NO release was measured in the same manner as in Test Example 2.
The inhibition rate of NO release for Compounds 2a to 2o prepared in Example 2 was tested in order to confirm the anti-inflammatory effect for the above compounds.

[2] = tested on: Raw 264.7 cell; assay: WST (water-soluble tetrazolium) analysis, relative cell viability; format: cell-based; conditions: 100 ng/mL LPS and compounds 24 hours
Description: Relative cell viability of Compound 2a to 2o prepared in Examples 2 was measured by WST (water-soluble tetrazolium) analysis.
Raw 264.7 cell was seeded in transparent 96-well plate and maintained for 1 day.
Media was aspirated, and each well was washed with serum free DMEM for twice. Each well was refilled with serum-free DMEM. Then, 100 ng/mL LPS and compounds were treated afterward and cultured for 24 hours. After the incubation, the supernatant culture media was transferred to new 96-well plate.
Immediately after transferring media, cell-seeded wells were refilled with 100 μL of 10% FBS and 1% antibiotic-antimycotic containing DMEM. Then, 10 μL of Ez-cytox WST assay reagent was used to treat each well, following the manufacturer's protocol.
After incubating for 20 min in a 5% CO2 incubator at 37° C. with humidified atmosphere, absorbance was read at 450 nm.
Blank values were obtained from the well only treated with 10% FBS and 1% antibiotic-antimycotic containing DMEM.

[3] = tested on: TNF-α secretion in Raw264.7 cell; assay: ELISA of secreted TNF-α; format: cell-based; conditions: Mus musculus, LPS 100 ng/mL, compounds 10 μM, read-out: TNF-α Inhibition Rate (%)
Description: Thus, in order to additionally confirm the inflammation inhibitory effects of Compounds 2f to 2l, the inhibition rate of TNF-α secretion was quantitatively measured by ELISA.
Cells were treated with each Compound 1d, or 2f to 2l, and LPS for 24 hours, followed by ELISA for TNF-α present in the culture solution.
In order to measure the amount of secreted TNF-α, Raw264.7 cell was seeded in transparent 96-well plate and maintained for 1 day. Media was aspirated after 1 day and replaced to serum-free DMEM with 1% (v/v) antibiotic-antimycotic solution. LPS and compounds were treated in a final concentration of 100 ng/mL and 10 μM.
Standard curve was plotted by the dose-dependent treatment of the control TNF-α protein provided with the ELISA kit. Blank value was measured by adding solutions without TNF-α substrate.
The TNF-α secretion inhibition rate of Compounds 1d, and 2f to 2l was confirmed, when compared with control groups.

[4] = tested on: HMGB1; assay: Immunofluorescence of cellular localization of HMGB1 upon LPS treatment; format: cell-based; conditions: Raw264.7 cell, 20 μM compounds 1 hour prior to 500 ng/mL LPS for 2 hours
Description: From the results shown in Table 6, Compounds 2j (68%) and 2l (60%) had better TNF-α release inhibitory effect than that of Compound 1d (43%). Therefore, it was analyzed with the immunofluorescence whether Compounds 2j and 2l may inhibit the cellular localization of HMGB1 upon LPS treatment.
Raw264.7 cell was seeded in “Nunc Lab-Tek II” chambered coverglass and maintained for 1 day.
Then, 20 μM of compounds were treated 1 hour prior to 500 ng/mL LPS treatment for 2 hours.
After aspirating the media and washing with PBS, 200 μl of 4% paraformaldehyde solution was treated and incubated at room temperature for 20 minutes. Then, 4% paraformaldehyde solution was aspirated and the sample was washed with PBS three times.
For the permeabilization to enable antibody binding, 200 μL of methanol was treated and incubated at −20° C. for 20 minutes. Methanol was then removed and the sample was washed with PBS three times.
Sample was blocked with 2% BSA in PBS solution at room temperature for 1 hour. Then, 2% BSA in PBS solution was removed and primary antibody containing 1% BSA in PBS was treated at 4° C. overnight. Antibody concentration was optimized according to the manufacturer's protocol. Primary antibody solution was removed and the sample was washed with PBS three times. Secondary antibody containing 1% BSA in PBS solution was treated at room temperature for 1 hour.
The secondary antibody used was goat anti rabbit TRITC labeled antibody from Abcam.
After 1 hour, antibody solution was aspirated and the sample was washed with PBS three times. For nucleus staining, Hoechst 33342 was diluted in PBS, and each well was treated and incubated at room temperature for 1 hour. Hoechst 33342 was then removed and the chamber was filled with PBS, continued for imaging using DeltaVision microscope.

[5] = tested on: IL-6 secreted from Raw 264.7 cells; assay: Western blot analysis of IL-6 secretion; format: cell-based; conditions: pretreatment with compounds
Description: From the results shown in Table 6, Compounds 2j (68%) and 2l (60%) had better TNF-α release inhibitory effect than that of Compound 1d (43%). Therefore, the inhibitory effect of IL-6 release secretion was analyzed with the Western blot analysis in order to additionally confirm the inflammation inhibitory effect of Compounds 2j and 2l.
(§1) Western Blot Analysis Protein sampling was done in 4° C. Cells were harvested in RIPA lysis buffer containing protease inhibitor cocktail and phosphatase inhibitor.
(§2) After centrifugation at 15000 rpm for 20 minutes, supernatant was transferred to new 1.5 mL tube. Protein concentration was normalized with a Micro BCA protein assay kit. The protein samples were analyzed with the Western blot procedure. Protein was transferred into PVDF membrane after SDS-PAGE. Membrane was blocked after transfer step, with 2% BSA in TBST for 1 hour in room temperature.
(§3) Primary antibodies were treated overnight at 4° C. or 1 hour in room temperature, followed by washing with TBST.
(§4) HRP-conjugated secondary antibodies were treated for 1 hour in room temperature. Antibodies were diluted in 1% BSA in TBST solution, with the concentration indicated in antibody manufacturer's protocol. After washing with TBST, the membrane was developed by Amersham ECL prime solution. Chemiluminescent signal was measured by ChemiDoc MP imaging system, and relative quantification were followed using ImageLab 4.0 software. The quantification result was processed with GraphPad Prism 5.0 software.

[6] = tested on: MAPK including p38, JNK, and ERK; assay: Western blot of MAPK phosphorylation; format: cell-based; conditions: Raw264.7 cells
Description: as §1, §2, §3, §4

[7] = tested on: NF-κB p65; assay: NF-κB p65 immunofluorescence (migration to the nucleus); format: cell-based; conditions: Raw264.7 cells, 500 ng/mL LPS
Source text: It is concluded that Compounds 1d, 2j, and 2l controlled and regulated the inflammatory signaling pathways in activated macrophages.

[8] = Liver microsomal stability, mouse; format: in vitro ADME; conditions: for microsomal stability Mouse(%): mouse liver microsomal
Source text: (§5) The aqueous solubility, liver microsomal stabilities and PK profiles was measure for Compounds 1d, 2j, and 2l in the in vivo CLP-induced mouse models.

[9] = Liver microsomal stability, human; format: in vitro ADME; conditions: for microsomal stability Human(%): human liver microsomal
Source text: as §5

[10] = PK profiles in mouse; format: in vivo; conditions: ip injection
Source text: as §5

[11] = tested on: IL-6; assay: IL-6 level in CLP-induced mice (ELISA); conditions: CLP mouse model, daily dose of 10 mg/kg for 9 days starting 1 hour before CLP induction
Description: After 4 hours, media were transferred to new transparent 96-well plate and diluted with 1% BSA in PBS solution. ELISA assay was performed following the manufacturer's protocol.
ELISA plates (Costar, Cambridge, Mass.) were coated overnight with anti-IL-6 monoclonal antibody (eBioscience, San Diego, Calif.) at 4° C. Wells were blocked with PBS containing 1% bovine serum albumin (Sigma-Aldrich, St. Louis, Mo.) for 1 hour at room temperature (RT) and incubated with serum overnight at 4° C.
After washing, plates were incubated with biotinylated anti-IL-6 antibody (eBioscience) for 1 hour at RT. Streptavidin-conjugated horseradish peroxidase (eBioscience) is attached for 1 hour at RT. Then, Color was developed using TMB solution (eBioscience),
Absorbance was read at 450 nm with a Multiskan Ascent (Labsystems, Kennett Square, Pa.). All experiments were independently performed at least three times.

[12] = tested on: CLP-induced mice; assay: Survival rate in CLP-induced mouse model; conditions: for survival rate / survival rate, in words: CLP mice; for survival rate: intraperitoneally, daily dose of 10 mg/kg for 21 days, start 1 hour before induction; for survival rate, in words: 10 mg/kg ip daily for 21 days, compared with vehicle and 1d groups
Source text: Briefly, the CLP mouse model is established by performing a surgical procedure to the cecum, which is the organ where the resident enteric microbiome exists. Ligating the cecum and puncturing the end with a needle causes endotoxemia by inducing polymicrobial contamination in the abdominal cavity toward the circulatory system.

[13] = Aqueous solubility; format: physicochemical
Source text: as §5

| Structure (SMILES) | NO Inhibition rate (%) [1] | Relative Cell Viability (%) [2] | inhibition at 10 µM [3] | translocation of HMGB1 from the nucleus to the cytosol [4] | level of IL-6 secreted (western blot) [5] | phosphorylation of MAPK including p38, JNK, and ERK [6] | migration of NF-κB to the nucleus [7] | microsomal stability Mouse(%) [8] | microsomal stability Human(%) [9] | PK data AUC [10] | PK data Cmax [10] | PK data T1/2 [10] | PK data Tmax [10] | survival rate [12] | solubility in aqueous media, in words, compared with Compound 1d [13] | liver microsomal stability in mice, in words, compared with Compound 1d [8] | liver microsomal stability in humans, in words, compared with Compound 1d [9] | survival rate, in words [12] | further results |
| --- | --- | --- | --- | --- | --- | --- | --- | --- | --- | --- | --- | --- | --- | --- | --- | --- | --- | --- | --- |
| CC1(C)Oc2cc(O)ccc2C2C1=CCn1c(=O)n(-c3ccccc3)c(=O)n12 (centres unmarked) [Compound 1d, inflachromene] | 87% | 105% | 43% | inhibited the translocation of HMGB1 from the nucleus to the cytosol | significantly reduced | clearly inhibited the phosphorylation of MAPK including p38, JNK, and ERK | inhibit the migration of NF-κB to the nucleus | 0.41 ± 0.10% | 0.82 ± 0.29% | 327 ± 68.7 µg·h/mL | 387 ± 122 µg/mL | 3.87 ± 0.84 h | 0.14 ± 0.10 h | about 45% | – | – | – | – | IL-6 levels in surviving mice, compared with control group [11]: significantly reduced; survival rate, in words, compared with vehicle-treated group ([12]; CLP-induced mice, ip 10 mg/kg for 9 days): significantly increased |
| CC(=O)c1ccc(-n2c(=O)n3n(c2=O)C2C(=CC3)C(C)(C)Oc3cc(O)ccc32)cc1 (centres unmarked) [Compound 2j] | 93% | 111% | 68% | inhibited the translocation of HMGB1 from the nucleus to the cytosol | superior inhibitory effect on IL-6 secretion; also recorded: improved the inhibition of IL-6 release | clearly inhibited the phosphorylation of MAPK including p38, JNK, and ERK | inhibit the migration of NF-κB to the nucleus | 2.46 ± 1.83% | 30.2 ± 2.81% | 202 ± 28.1 µg·h/mL | 100 ± 3.72 µg/mL | 3.45 ± 1.00 h | 0.25 ± 0.00 h | 74% | improved solubility in aqueous media | improved liver microsomal stability | improved liver microsomal stability | superior effects on survival rates | solubility ([13]; aqueous media): 162 ± 2.12 µg/mL (≈ 387 µM) |
| COc1cc(OC)cc(-n2c(=O)n3n(c2=O)C2C(=CC3)C(C)(C)Oc3cc(O)ccc32)c1 (centres unmarked) [Compound 2l] | 94% | 121% | 60% | inhibited the translocation of HMGB1 from the nucleus to the cytosol | superior inhibitory effect on IL-6 secretion; also recorded: improved the inhibition of IL-6 release | clearly inhibited the phosphorylation of MAPK including p38, JNK, and ERK | inhibit the migration of NF-κB to the nucleus | 20.2 ± 1.78% | 41.2 ± 4.33% | 218 ± 51.8 µg·h/mL | 282 ± 87.0 µg/mL | 5.00 ± 0.98 h | 0.14 ± 0.10 h | 54% | improved solubility in aqueous media | improved liver microsomal stability | improved liver microsomal stability | superior effects on survival rates | – |
